The subject of assay [1] is human iPS cell-derived myocardial cells. As to the kind of experiment: Heart rate of myocardial cells by MEA, maintenance culture medium containing serum. Format: cell-based. The text has this:
(§1) Comparative Example 1: Method and results of evaluating decrease in heart rate by muscarinic receptor agonist (carbachol) using maintenance culture medium Human iPS cell-derived myocardial cells (iCell myocardial cells 2.0, manufactured by FUJIFILM Cellular Dynamics, Inc.) in a frozen state were thawed, suspended in a thawing culture medium (iCell myocardial cell thawing culture medium, manufactured by FUJIFILM Cellular Dynamics, Inc.), and then seeded at a cell density of 50,000 cells per well on a MEA plate (Cyto View MEA 48, manufactured by Axion BioSystems, Inc.). The seeding density of myocardial cells in the vicinity of the electrode was 2,798 cells/mm^2. […]
(§2) On the day of measurement, the MEA plate on which the human iPS cell-derived myocardial cells were cultured was placed in an MEA system (Maestro Pro, manufactured by Axion BioSystems, Inc.), and the extracellular potential was measured after 20 minutes (medium control, carbachol concentration: 0 μmol/L). Subsequently, 0.01 μmol/L of carbachol (manufactured by Tokyo Chemical Industry Co., Ltd.) was added to the MEA plate, and then the extracellular potential was measured after 20 minutes from the addition. Similarly, carbachol was added to give concentrations of 0.1 μmol/L, 1 μmol/L, and 10 μmol/L, and then the extracellular potential was measured at each concentration. […]

For assay [2] the test system is unchanged. Description: Heart rate of myocardial cells by MEA extracellular potential, serum-free culture medium without additive. Format: cell-based. Conditions: no pretreatment. The method, then: as §1, with “Reference Example” for “Comparative Example”, “evaluating effect on” for “evaluating decrease in”, “rate in a case where” for “rate by”, “(carbachol) is added to serum-free” for “(carbachol) using maintenance”, “was 2,736” for “was 2,798”
as §2, with “concentration after 20 minutes from the addition.” for “concentration.”

In the case of `CN1[C@@H]2CC[C@H]1C[C@@H](OC(=O)C(CO)c1ccccc1)C2` (stereo partly shown) [atropine], the “increase in heart rate” value in assay [1] (atropine 0.01-1 μmol/L) and in assay [2] (atropine 0.01-1 μmol/L) was “No clear increase in heart rate” in each case.

For the compound `C[N+](C)(C)CCOC(N)=O` [carbachol], the “decrease in heart rate” value was “No clear decrease in heart rate” in assay [1] (carbachol 0.01-10 μmol/L) and “up to 15%” in assay [2] (carbachol 0.01-10 μmol/L, 20 minutes after each addition, vs medium control).

These data come from patent publication US20250354979A1, “DRUG EVALUATION METHOD, REAGENT, AND KIT” (FUJIFILM Corporation, priority 2023, published 2025).
